The values below come from PubChem BioAssay AID1996.

In brackets after ≈: the same amount, converted by molar mass.

For the series the following is noted: buffer; pH 7.4; 200.0 µM.
`COc1ccc(CONc2ncnc3nonc23)cc1[N+](=O)[O-]`: the kinetic solubility was > 47.7 µg/mL.
Turning to `O=C(Nc1cccc2ncccc12)C(c1ccccc1)c1ccccc1`, the solubility (kinetic) is < 0.4 µg/mL.
Next, `CCN(C(=O)COC(=O)/C=C/c1ccc(F)cc1)C1CCCCC1`: 42.8 µg/mL (≈ 128 µM); `Cc1cccc(-n2c(C)c(-c3ccccc3)[nH]c2=S)c1`: 4.5 µg/mL (≈ 16 µM).
The same measure for `Fc1ccc(NC(=S)N2CCc3[nH]c4ccccc4c3C2)cc1`: 1.2 µg/mL (≈ 3.69 µM).
The same measure for `Nc1nccc(-c2ccc(-n3cnc4ccccc43)cc2)n1`: 2 µg/mL (≈ 6.96 µM); for `COCC(=O)N1CCCC(C(=O)c2ccc3c4c(cccc24)CC3)C1` (stereo unspecified): 49.8 µg/mL (≈ 148 µM).
In turn, `Cc1cc(Nc2cccc([N+](=O)[O-])c2)c2cccc(C)c2n1.Cl` showed a kinetic solubility of 5.5 µg/mL.
Next, `Cc1ccc(S(=O)(=O)N2CCCCC2)cc1NC(=O)Cc1cccs1`: 20.6 µg/mL (≈ 54.4 µM); `COc1ccc(C(CNS(=O)(=O)c2ccc(NC(C)=O)c(OC)c2)N2CCCCC2)cc1.Cl` (stereo unspecified): > 74.7 µg/mL; `O=C(Nc1cc(Cl)ccc1O)C1CC(c2ccccc2O)=NO1` (stereo unspecified): 5.8 µg/mL (≈ 17.4 µM).
In the case of `CC(C)CCC1(C)NC(=O)N(CC(=O)Nc2ccc3c(c2)OCCO3)C1=O` (stereo unspecified), the kinetic solubility was found to be 49.6 µg/mL (≈ 132 µM).
Next, `CCc1ccccc1N(C(C)=O)c1nc(CCl)cs1`: > 44.2 µg/mL.
Next, `CN1CCN(Cc2cc(=O)n3ccsc3n2)CC1`: 35.7 µg/mL (≈ 135 µM); `O=C(NC12CC3CC(CC(C3)C1)C2)c1ccc([N+](=O)[O-])cc1`: 5.4 µg/mL (≈ 18 µM); `Cc1nc(C)c(C(=O)OCC(=O)Nc2ccccc2)s1`: > 43.6 µg/mL.
Next, `N#CCCN(C(=S)NC(=O)C1CCCCC1)c1ccccc1F`: > 50 µg/mL; `Clc1ccc2c(c1)CCc1cccnc1C2=C1CCNCC1`: 21.6 µg/mL (≈ 69.5 µM); `O=S(=O)(Nc1cccc(CO)c1)c1cccs1`: > 40.4 µg/mL.
`Cc1ccc(Cl)cc1NC(=O)N[C@@H](CC(C)C)C(=O)O` came in with a kinetic solubility of 43.8 µg/mL (≈ 147 µM).
Regarding `Nc1c(Cl)nc(-c2ccccc2)nc1Cl`, the kinetic solubility was 7.9 µg/mL (≈ 32.9 µM).
Next, `CC1CCCC(NC(=O)CN2C(=O)NC(C)(c3cc(F)ccc3F)C2=O)C1C` (stereo unspecified): > 59 µg/mL; `Cc1cc(C)nc(SC2CC(=O)N(c3ccc(C)c(C)c3)C2=O)n1` (stereo unspecified): 19.7 µg/mL (≈ 57.7 µM).
Next, `O=C1COc2ccc(S(=O)(=O)NCc3ccccc3)cc2N1`: 11.6 µg/mL (≈ 36.4 µM); `COc1cccc(C(=O)Nc2cccc(-c3ccccc3)c2)c1`: 2.5 µg/mL (≈ 8.24 µM).
The same measure for `O=C(/C=C/c1ccc(Cl)c([N+](=O)[O-])c1)c1ccc(O)cc1`: 3.9 µg/mL (≈ 12.8 µM).
`Cc1ccc(-c2cc(-c3ccco3)c(C#N)c(=O)[nH]2)cc1`: the solubility (kinetic) was 2.6 µg/mL (≈ 9.41 µM).
As for `O=C(NC(=S)Nc1cccnc1)c1ccccc1`, the kinetic solubility stood at 36.1 µg/mL (≈ 140 µM).
The same measure for `COc1ccc2[nH]c(C(=O)N3CCC(Cc4ccccc4)CC3)cc2c1`: < 0.4 µg/mL.
The same measure for `CC(=O)c1c(-c2ccccc2)[nH]c2ccccc12`: 1.4 µg/mL (≈ 5.95 µM); for `COc1ccc(S(=O)(=O)N2CCOCC2)cc1NC(=O)COC(=O)c1ccc([N+](=O)[O-])s1`: 14 µg/mL (≈ 28.8 µM).
The same measure for `O=C(COc1ccccc1)Nc1ccccc1C(=O)NC1CC1`: 6.4 µg/mL (≈ 20.6 µM); for `O=CC(Cl)P(=O)(N1CCOCC1)N1CCOCC1` (stereo unspecified): 32.5 µg/mL (≈ 110 µM).
For the molecule `Cc1ccccc1NC(=O)c1c([N+](=O)[O-])cnn1C`, the solubility (kinetic) was > 39 µg/mL.
Turning to `COc1cccc(C(NC(C)=O)c2ccc3cccnc3c2O)c1` (stereo unspecified), the solubility (kinetic) came to 44.4 µg/mL (≈ 138 µM).
Next, `CCOC(=O)c1oc2ccccc2c1NC(=O)c1ccco1`: 1.5 µg/mL (≈ 5.01 µM); `O=S1(=O)N=C(N2CCCC2)c2ccccc21`: 31.4 µg/mL (≈ 133 µM).
Next, `CC(C)[C@H](NC(=O)c1ccccc1F)C(=O)NC1CCCCCCC1`: 7.5 µg/mL (≈ 21.5 µM).
Next, `CC(NC(=O)COC(=O)c1cccnc1Cl)C12CC3CC(CC(C3)C1)C2` (stereo unspecified): 52.4 µg/mL (≈ 139 µM).
As for `COc1cccc(NC(=O)c2cc3ccccc3oc2=O)c1`, the kinetic solubility is < 0.6 µg/mL.
Next, `O=C(Nc1ccccc1)/C(=C/c1ccccc1)NC(=O)c1ccco1`: 1.2 µg/mL (≈ 3.61 µM).
As to `COc1ccccc1CNc1ncccn1.O=C(O)C(=O)O`, the kinetic solubility came to 34.4 µg/mL. This solubility kinetic lies about 29-fold higher than the previous one.
The same measure for `COC(=O)Cc1c(O)ccn(CCc2ccccc2)c1=O`: > 43.1 µg/mL; for `O=C(Nc1sc(-c2ccccc2)cc1C(=O)O)c1ccccc1`: 45.1 µg/mL (≈ 139 µM).
The same measure for `COc1ccc2oc(C(=O)OCC(=O)NC3CCCC3)c(C)c2c1`: 6.7 µg/mL (≈ 20.2 µM); for `CC(NC(=O)COC(=O)C1CC1C)c1cccc(Cl)c1` (stereo unspecified): > 44.4 µg/mL.
The same measure for `COc1cc(C(=O)NC(=S)N(CCC#N)Cc2cccnc2)cc(OC)c1OC`: 59.3 µg/mL (≈ 143 µM); for `Cc1oc(S(=O)(=O)N(C)C)cc1C(=O)Nc1ccc(F)cc1`: 2.3 µg/mL (≈ 7.05 µM).
On to `Oc1c(Cl)cc(Cl)cc1C1Nc2ccccc2-n2cccc21` (stereo unspecified), for which the kinetic solubility is < 0.4 µg/mL.
The same measure for `CCS(=O)(=O)c1c(S(=O)(=O)CC)c2ccccn2c1C(N)=O`: > 51.7 µg/mL; for `Cc1ccccc1C(=O)NCCCNC(=O)c1ccco1`: 42.9 µg/mL (≈ 150 µM).
